From patent US6420398B2, “Urea derivatives having nitrogen aromatic heterocycle” (Santen Pharmaceutical Co., Ltd., priority 1998, dated 2002) come the findings set out here.

Counter-ions that a name gives are not always drawn.

One data set concerns TNF-α production induced by lipopolysaccharide (LPS) stimulation. Description: Inhibitory effects on TNF-α production induced by LPS stimulation, in vivo test in rats (method of McGeehan et al.). Conditions: Rattus norvegicus, 2 h; female rats; LPS from Salmonella s.c.; oral administration of 10 mg/kg test compound immediately after LPS; plasma TNF-α by ELISA two hours after LPS; read-out: TNF-α production inhibition rate (%). How it is done:
Inhibitory effects on TNF-α production induced by lipopolysaccharide (LPS) stimulation were studied by in vivo tests according to the method of McGeehan et al. (Nature, 370, 558-561 (1994)).
Female rats (five per group), body weight of about 200 g, about eight weeks old, were used as test animals. LPS from Salmonella was dissolved in physiological saline to prepare an LPS solution (1 mg/ml). Test compounds were dissolved or uniformly suspended in a 1% aqueous methylcellulose solution to give test compound preparation liquids.
The above-mentioned LPS solution (0.5 ml/kg) was subcutaneously administered to the rat. Immediately after the LPS administration, the test compound preparation liquid (5 ml/kg, containing 10 mg/kg test compound) was orally administered. Two hours after the LPS administration, blood was collected from abdominal aorta and was centrifuged at 4° C. and 3000 rpm for ten minutes. TNF-α levels in the obtained plasma were measured with a rat TNF-α -specific ELISA kit. TNF-α was not observed in the plasma with respect to an LPS-nonadministered group (control).
TNF-α production inhibition rates of the test compounds were determined by the following equation.
Inhibition rate (%)=[(A−B)/A]×100
A: TNF-α level in plasma of test compound-nonadministered group
B: TNF-α level in plasma of test compound-administered group
Take `CC(=O)SCCN(CCC1CCCCC1)C(=O)NCCc1ccncc1` [Compound No. 4-2, 1-[2-(Acetylthio)ethyl]-1-(2-cyclohexylethyl)-3-[2-(4-pyridyl)ethyl]urea]: the inhibition (as a rule, the share of the control response that was lost under treatment) at 10 mg/kg came out at 72.5%.

`CC(=O)SCCN(CCC1CCCCC1)C(=O)NCCCc1ccncc1` [Compound No. 4-3, 1-[2-(Acetylthio)ethyl]-1-(2-cyclohexylethyl)-3-[3-(4-pyridyl)propyl]urea]: the inhibition at 10 mg/kg came to 80.8%. For `CC(=O)SCCN(CCc1ccccc1)C(=O)NCCCc1cccnc1` [Compound No. 4-15, 1-[2-(Acetylthio)ethyl]-1-phenethyl-3-[3-(3-pyridyl)propyl]urea], the inhibition at 10 mg/kg came out at 77.3%. In the case of `CC(=O)SCCN(CCc1ccccc1)C(=O)NCCCc1ccncc1` [Compound No. 4-16, 1-[2-(Acetylthio)ethyl]-1-phenethyl-3-[3-(4-pyridyl)propyl]urea], the inhibition at 10 mg/kg amounted to 77.2%.

With `CC(=O)SCCN(CCCc1ccccc1)C(=O)NCCCc1ccncc1` [Compound No. 4-17, 1-[2-(Acetylthio)ethyl]-1-(3-phenylpropyl)-3-[3-(4-pyridyl)propyl]urea], the inhibition at 10 mg/kg was 70.6%.

For the molecule `CC(=O)SCCN(CCc1ccc(F)cc1)C(=O)NCCCc1ccncc1` [Compound No. 4-18, 1-[2-(Acetylthio)ethyl]-1-(4-fluorophenethyl)-3-[3-(4-pyridyl)propyl]urea], the inhibition at 10 mg/kg was 64.2%. Take `CSCCN(CCC1CCCCC1)C(=O)NCCCc1ccncc1` [Compound No. 5-1, 1-(2-Cyclohexylethyl)-1-[2-(methylthio)ethyl]-3-[3-(4-pyridyl)propyl]urea]: the inhibition at 10 mg/kg was determined as 74.9%.

Consider `CSCCN(CCC1CCCCC1)C(=O)NCc1ccncc1` [Compound No. 5-2, 1 (2-Cyclohexylethyl)-1-[2-(methylthio)ethyl]-3-(4-pyridylmethyl)urea], for which the inhibition at 10 mg/kg was 81.2%. Same read-out and setting: next, `CC(=O)SCCN(CCC1CCCCC1)C(=O)NCc1ccncc1` [Compound No. 8-1, 1-[2-(Acetylthio)ethyl]-1-(2-cyclohexylethyl)-3-(4-pyridylmethyl)urea hydrochloride]: 80%; `CC(=O)SCCN(CCC1CCCC1)C(=O)NCc1ccncc1` [Compound No. 8-3, 1-[2-(Acetylthio)ethyl]-1-(2-cyclopentylethyl)-3-(4-pyridylmethyl)urea hydrochloride]: 78.9%; `CC(=O)SCCN(CCC12CC3CC(CC(C3)C1)C2)C(=O)NCc1ccncc1` [Compound No. 8-4, 1-[2-(Acetylthio)ethyl]-1-[2-(1-adamantyl)ethyl]-3-(4-pyridylmethyl)urea hydrochloride]: 81%. As to `CC(=O)SCCN(CCC1=CCCCC1)C(=O)NCc1ccncc1` [Compound No. 8-10, 1-[2-(Acetylthio)ethyl]-1-[2-(1-cyclohexenyl)ethyl]-3-(4-pyridylmethyl)urea hydrochloride], the inhibition at 10 mg/kg came out at 69%. With `O=C(NCCCc1ccncc1)N(CCS)CCC1CCCCC1` [Compound No. 8-11, 1-(2-Cyclohexylethyl)-1-(2-mercaptoethyl)-3-[3-(4-pyridyl)propyl]urea hydrochloride], the inhibition at 10 mg/kg amounted to 63.6%.

Test system in the next data set: not given
Assay: not given
Conditions: not given
As to `CC(=O)SCCN(CCC1CCCCC1)C(=O)NCCCc1ccncc1` [Compound No. 4-3, 1-[2-(Acetylthio)ethyl]-1-(2-cyclohexylethyl)-3-[3-(4-pyridyl)propyl]urea], the melting point (commonly the temperature, or range, at which the solid turns liquid) was 70 °C.
